Measurements published in the NIST ThermoML archive (doi:10.1021/je101180r).
± gives the expanded uncertainty stated by the source.

Conditions: Liquid, Ebulliometric method (Recirculating still)

Compound | vapor or sublimation pressure (373.7 K) [kPa] | vapor or sublimation pressure (384.96 K) [kPa] | vapor or sublimation pressure (402.57 K) [kPa] | vapor or sublimation pressure (413.74 K) [kPa]
CN(C)c1ccccc1 [N,N-dimethylaniline] | 5.158 ± 0.11 | 8.041 ± 0.18 | – | –
Cc1cccnc1N [2-amino-3-methylpyridine] | – | – | 5.158 ± 0.11 | 8.041 ± 0.18
